According to patent publication US20220024877A1 (Kansas State University Research Foundation, priority 2018, published 2022):
In brackets after ≈: the same amount, converted by molar mass. Read-outs that look alike come from different tables or passages of the source.

Tests used:
[1] = log P (octanol/water partition coefficient); assay type: physicochemical
[2] = system: S. aureus clinical isolate SA3; test: Zinc-activated activity, MIC with Zn2+ as trigger; settings: Staphylococcus aureus
[3] = system: Avirulent Mtb strain mc26206 (H37Rv ΔpanCD ΔleuCD, double auxotroph); test: microbe, parasite or virus in culture; assay type: cell-based; settings: Mycobacterium tuberculosis
S. aureus strain 1471 = test: Drop assay against S. aureus strain 1471 with or without copper
Procedure: For the drop assay, bacteria were grown in wells with or without copper, using a 1:2 drug titration starting at 10 μM.

[4] = Therapeutic index (approx.)
[5] = Copper(I) binding constant of NNSN compounds (1H-NMR titration with CuBr in D4-methanol); settings: for Copper (I) binding constant: Table I
Procedure: They were recorded in D4-methanol by means of adding aliquots of a 5 mmol CuBr stock solution in D4-methanol to the 1 mmol NNSN-compound, resulting in 0, 0.5, 1.0, 2.0 and 3.0 mmol CuBr concentration in D4-methanol.

MRSA = test: In vitro activity against S. aureus (MRSA), MIC with or without Cu supplementation; settings: Staphylococcus aureus, MRSA
Procedure: S. aureus was inoculated in Mueller-Hinton medium from frozen stocks and grown for 2-4 h (until reaching an OD600˜1) at 37° C. while shaking. Once the OD was reached, bacteria were harvested and diluted in Phenolred-free RPMI1640 medium to an OD of 0.01 (=inoculum). Test compounds where diluted from frozen DMSO-stocks were diluted in Phenolred-free RPMI1640 medium with or without Cu supplementation (100 μM) and serially diluted in 96-well plates in the same medium to achieve a final concentration of between 0.08 and 10 μM after addition of an equal volume of inoculum. Medium-only controls and growth controls in the absence of test compounds were also included. The plates were placed in sealed bags and incubated at 37° C. After 15-20 h incubation time, an OD600 reading was taken and analyzed. […] If kinetic data were required, resazurin was added to each well. Using a plate reader with incubation chamber, resazurin conversion was monitored by fluorescence reading every 20 min for up to 24 h. After normalizing the data to respective controls, the MIC was determined using the same definition as above.

[6] = read-out: MIC* against MRSA (μM), kinetic data (determined from bacteria growth experiments), resulting in IC50 values similar to MIC values

Nc1ccn(C(=S)Nc2ccc(Cl)cc2)n1 [APM03, 3-amino-N-(4-chlorophenyl)-1H-pyrazole-1-carbothioamide]
logP [1]: 2.1
MIC [2]: 2.5 µM (≈ 0.632 µg/mL)
IC50 ([3]; read-out: IC50 +Cu): 300 nM
IC50 ([3]; read-out: IC50 −Cu): > 12500 nM
MIC90 ([3]; read-out: MIC90 +Cu): 0.5 µM (≈ 0.126 µg/mL)
MIC90 ([3]; read-out: MIC90 −Cu): > 25 µM
MIC (S. aureus strain 1471; Staphylococcus aureus, 1471, read-out: MIC: +50 μM Cu): 1.25 µM (≈ 0.316 µg/mL)
MIC (S. aureus strain 1471; Staphylococcus aureus, MRSA, read-out: MIC against MRSA (clinical isolate 1471)): 0.6 µM (≈ 0.152 µg/mL)
Therapeutic index (approx.) [4]: 2
Copper (I) binding constant [5]: 53225 M⁻¹
MIC (MRSA; read-out: MIC against the clinical isolate SA3, SA3 resistant to ampicillin, clindamycin, erythromycin, penicillin, and tetracycline): 70 µM (≈ 17.7 µg/mL)
MIC (MRSA; [6]): 0.07 µM (≈ 0.0177 µg/mL)

Cc1ccn(C(=S)Nc2ccc(Cl)cc2)n1 [SB17]
MIC [2]: 5 µM (≈ 1.26 µg/mL)
Binding constant ([5]; Cu-NNSN 1:1 stoichiometry): 54020 M⁻¹

Nc1ccn(C(=S)Nc2ccc([N+](=O)[O-])cc2)n1 [SB27, 3-amino-N-(4-nitrophenyl)-1H-pyrazole-1-carbothioamide]
Therapeutic index (approx.) [4]: 1
Copper (I) binding constant [5]: 10460 M⁻¹
MIC (MRSA; [6]): 0.3 µM (≈ 0.079 µg/mL)
